Columns and labels:
[1] = Example 7: safety of single 400 mg dose; type: in vivo, human; conditions: single oral 400 mg dose, fasted and fed, healthy Japanese males
Method: The subjects were admitted to the medical institution in the afternoon on the day before administration (“Day-1”). […] The subjects were discharged the day after administration (“Day 2”). Thus, the subjects were hospitalized for a total of three days. Follow up assessment for safety was performed 6 to 8 days after administration (“Days 7 to 9”).

[2] = in vivo
Method: Pharmacokinetic (PK) blood draws were performed on days 7, 17, and 27.

COc1cc2c(cc1Cc1cccc(Cl)c1F)c(=O)c(C(=O)O)cn2[C@H](CO)C(C)C [Compound 1, 6-(3-chloro-2-fluorobenzyl)-1-[(2S)-1-hydroxy-3-methylbutan-2-yl]-7-methoxy-4-oxo-1,4-dihydroquinoline-3-carboxylic acid]
Safety and tolerability [1]: safe and well tolerated
PK (Cmax, AUCtau, Ctau) during co-administration vs alone [2]: unaffected

From US20070219243A1, “Method for improving the pharmacokinetics of HIV integrase inhibitors” (priority 2005, published 2007)
